Experimental data: PubChem BioAssay AID180 (DTP/NCI, 2004)
Several values for one entry are separate records, joined by “and”; a condition that tells them apart may be missing. Equal values may be shown once. Non-standard residues stand in square brackets, D forms with d. Residues, ends and D or L forms follow the SMILES beside them. ξ: configuration not given here. Ac5c = NC1(C(=O)O)CCCC1; ξS = NC(CO)C(=O)O

System: BDF1 mice, Adenocarcinoma 755 s.c., tumor weight T/C
Experiment: NCI In Vivo Anticancer Drug Screen. Data for tumor model Adenocarcinoma 755 (subcutaneous) in B6D2F1 (BDF1) mice
Conditions: endpoint: mean tumor weight, higher = larger tumour
Procedure, shortened: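 Tumor-bearing mice receive test compound while controls get vehicle alone. Antitumor effect is scored from survival or tumor dimensions as a T/C quotient.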

[1] = dose: 10.0 mg/kg/injection, schedule: Q01DX011 (ip), vehicle: carboxymethylcellulose (CMC)
[2] = dose: 40.0 mg/kg/injection, schedule: Q01DX011 (ip), vehicle: carboxymethylcellulose (CMC)
[3] = dose: 8.0 mg/kg/injection, schedule: Q01DX011 (ip), vehicle: methylcellulose (MC)
[4] = dose: 16.0 mg/kg/injection, schedule: Q01DX011 (ip), vehicle: methylcellulose (MC)
[5] = dose: 50.0 mg/kg/injection, schedule: Q01DX011 (ip), vehicle: methylcellulose (MC)
[6] = dose: 50.0 mg/kg/injection, schedule: Q01DX011 (sc), vehicle: steriod suspending solution
[7] = dose: 100.0 mg/kg/injection, schedule: Q01DX011 (sc), vehicle: steriod suspending solution
[8] = dose: 400.0 mg/kg/injection, schedule: Q01DX011 (sc), vehicle: steriod suspending solution

Compound: O=C(O)C(O)C(O)C(O)C(O)CO.O=C(O)C(O)C(O)C(O)C(O)CO.O=C(O)C(O)C(O)C(O)C(O)CO.[Ga] (configuration not stated)
- T/C [1]: 72 % of control
- T/C (dose: 20.0 mg/kg/injection, schedule: Q01DX011 (ip), vehicle: carboxymethylcellulose (CMC)): 64 % of control
- T/C [2]: 25 % of control
- T/C (dose: 80.0 mg/kg/injection, schedule: Q01DX011 (ip), vehicle: carboxymethylcellulose (CMC)): 10 % of control

Compound: CCOP(=O)(OCC)OCC1OC(n2cnc3c(=S)nc[nH]c32)C(O)C1O (configuration not stated)
- T/C (dose: 4.0 mg/kg/injection, schedule: Q01DX011 (ip), vehicle: methylcellulose (MC)): 50 % of control
- T/C [3]: 49 % of control
- T/C [4]: 56 % of control
- T/C (dose: 31.0 mg/kg/injection, schedule: Q01DX011 (ip), vehicle: methylcellulose (MC)): 33 % of control
- T/C (dose: 62.0 mg/kg/injection, schedule: Q01DX011 (ip), vehicle: methylcellulose (MC)): 46 % of control
- T/C (dose: 125.0 mg/kg/injection, schedule: Q01DX011 (ip), vehicle: methylcellulose (MC)): 7 % of control

Compound: CCCCn1cnc2c(SSc3ncnc4c3ncn4CCCC)ncnc21
- T/C (dose: 0.5 mg/kg/injection, schedule: Q01DX011 (ip), vehicle: carboxymethylcellulose (CMC)): 94 % of control
- T/C (dose: 1.0 mg/kg/injection, schedule: Q01DX011 (ip), vehicle: carboxymethylcellulose (CMC)): 104 % of control
- T/C (dose: 2.0 mg/kg/injection, schedule: Q01DX011 (ip), vehicle: carboxymethylcellulose (CMC)): 101 % of control
- T/C (dose: 4.0 mg/kg/injection, schedule: Q01DX011 (ip), vehicle: carboxymethylcellulose (CMC)): 77 % of control
- T/C (dose: 7.5 mg/kg/injection, schedule: Q01DX011 (ip), vehicle: other): 32 % of control
- T/C (dose: 8.0 mg/kg/injection, schedule: Q01DX011 (ip), vehicle: carboxymethylcellulose (CMC)): 19 % of control
- T/C (dose: 15.0 mg/kg/injection, schedule: Q01DX011 (ip), vehicle: other): 23 % of control
- T/C (dose: 16.0 mg/kg/injection, schedule: Q01DX011 (ip), vehicle: carboxymethylcellulose (CMC)): 13 % of control
- T/C (dose: 30.0 mg/kg/injection, schedule: Q01DX011 (ip), vehicle: other): 1 % of control
- T/C (dose: 31.0 mg/kg/injection, schedule: Q01DX011 (ip), vehicle: carboxymethylcellulose (CMC)): 6 % of control
- T/C (dose: 62.0 mg/kg/injection, schedule: Q01DX011 (ip), vehicle: carboxymethylcellulose (CMC)): 5 % of control

Compound: Nc1nc(NC2CCCCC2)cc(=O)[nH]1
- T/C [5]: 56 % of control
- T/C (dose: 100.0 mg/kg/injection, schedule: Q01DX011 (ip), vehicle: methylcellulose (MC)): 55 % of control
- T/C (dose: 200.0 mg/kg/injection, schedule: Q01DX011 (ip), vehicle: methylcellulose (MC)): 51 % of control
- T/C (dose: 400.0 mg/kg/injection, schedule: Q01DX011 (ip), vehicle: methylcellulose (MC)): 33 % of control

Compound: CCSc1ncnc2c1ncn2C1OC(CO)C(O)C1O (configuration not stated)
- T/C (dose: 6.25 mg/kg/injection, schedule: Q01DX011 (ip), vehicle: saline): 96 % of control
- T/C (dose: 12.5 mg/kg/injection, schedule: Q01DX011 (ip), vehicle: methylcellulose (MC)): 53 % of control
- T/C (dose: 12.5 mg/kg/injection, schedule: Q01DX011 (ip), vehicle: saline): 49 % of control
- T/C (dose: 25.0 mg/kg/injection, schedule: Q01DX011 (ip), vehicle: methylcellulose (MC)): 27 % of control
- T/C (dose: 25.0 mg/kg/injection, schedule: Q01DX011 (ip), vehicle: saline): 14 % of control
- T/C [5]: 10 % of control
- T/C (dose: 50.0 mg/kg/injection, schedule: Q01DX011 (ip), vehicle: saline): 4 % of control

Compound: CC1(O)CCC2C3CCC4=CC(=O)CCC4C3CCC21C (configuration not stated)
- T/C [6]: 93 % of control
- T/C [7]: 76 % of control
- T/C (dose: 200.0 mg/kg/injection, schedule: Q01DX011 (sc), vehicle: steriod suspending solution): 59 % of control
- T/C [8]: 51 % of control
- T/C (dose: 500.0 mg/kg/injection, schedule: Q01DX011 (sc), vehicle: steriod suspending solution): 47 % of control
- T/C (dose: 600.0 mg/kg/injection, schedule: Q01DX011 (sc), vehicle: steriod suspending solution): 38 % of control

Compound: CCCNS(=O)(=O)c1ncnc2nc[nH]c12
- T/C (dose: 9.0 mg/kg/injection, schedule: Q01DX011 (ip), vehicle: carboxymethylcellulose (CMC)): 52 % of control
- T/C (dose: 18.0 mg/kg/injection, schedule: Q01DX011 (ip), vehicle: carboxymethylcellulose (CMC)): 17 % of control
- T/C (dose: 37.0 mg/kg/injection, schedule: Q01DX011 (ip), vehicle: carboxymethylcellulose (CMC)): 3 % of control

Compound: CC(=O)OCC(=O)[C@@]1(O)CC[C@H]2[C@@H]3CCC4=CC(=O)[C@H](C)C[C@]4(C)[C@H]3[C@@H](O)C[C@@]21C
- T/C (dose: 6.2 mg/kg/injection, schedule: Q01DX011 (sc), vehicle: steriod suspending solution): 52 % of control
- T/C (dose: 12.5 mg/kg/injection, schedule: Q01DX011 (sc), vehicle: steriod suspending solution): 43 % of control
- T/C (dose: 25.0 mg/kg/injection, schedule: Q01DX011 (sc), vehicle: steriod suspending solution): 13 % of control and 38 % of control
- T/C [6]: 32 % of control
- T/C [7]: 15 % of control
- T/C [8]: 4 % of control

Compound: CN1Cc2c(ccc3c2OCO3)[C@@H]2[C@H](O)Cc3cc4c(cc3[C@@H]21)OCO4
- T/C (dose: 150.0 mg/kg/injection, schedule: Q01DX011 (ip), vehicle: carboxymethylcellulose (CMC)): 167 % of control
- T/C (dose: 300.0 mg/kg/injection, schedule: Q01DX011 (ip), vehicle: carboxymethylcellulose (CMC)): 51 % of control

Compound: CN1CC[C@]23c4c5ccc(O)c4O[C@H]2C(=O)CC[C@H]3[C@H]1C5
- T/C [3]: 53 % of control and 70 % of control
- T/C [4]: 50 % of control and 75 % of control
- T/C (dose: 32.0 mg/kg/injection, schedule: Q01DX011 (ip), vehicle: methylcellulose (MC)): 61 % of control

Compound: O=CNC(Cc1ccc(N(CCCl)CCCl)cc1)C(=O)O (configuration not stated)
- T/C (dose: 1.25 mg/kg/injection, schedule: Q01DX011 (ip), vehicle: carboxymethylcellulose (CMC)): 94 % of control
- T/C (dose: 1.25 mg/kg/injection, schedule: Q01DX011 (ip), vehicle: saline): 87 % of control
- T/C (dose: 2.5 mg/kg/injection, schedule: Q01DX011 (ip), vehicle: carboxymethylcellulose (CMC)): 54 % of control
- T/C (dose: 2.5 mg/kg/injection, schedule: Q01DX011 (ip), vehicle: saline): 91 % of control
- T/C (dose: 5.0 mg/kg/injection, schedule: Q01DX011 (ip), vehicle: carboxymethylcellulose (CMC)): 31 % of control and 50 % of control
- T/C (dose: 5.0 mg/kg/injection, schedule: Q01DX011 (ip), vehicle: saline): 71 % of control
- T/C [1]: 23 % of control
- T/C (dose: 10.0 mg/kg/injection, schedule: Q01DX011 (ip), vehicle: methylcellulose (MC)): 34 % of control
- T/C (dose: 10.0 mg/kg/injection, schedule: Q01DX011 (ip), vehicle: saline): 66 % of control
- T/C (dose: 20.0 mg/kg/injection, schedule: Q01DX011 (ip), vehicle: methylcellulose (MC)): 34 % of control
- T/C [2]: 2 % of control
- T/C (dose: 40.0 mg/kg/injection, schedule: Q01DX011 (ip), vehicle: methylcellulose (MC)): 23 % of control
- T/C (dose: 80.0 mg/kg/injection, schedule: Q01DX011 (ip), vehicle: methylcellulose (MC)): 4 % of control

Compound: O=C1N(Cl)C(=O)C(c2ccc(Cl)cc2)(c2ccc(Cl)cc2)N1Cl
- T/C (dose: 7.5 mg/kg/injection, schedule: Q#A X022 (ip), vehicle: saline): 161 % of control
- T/C (dose: 15.0 mg/kg/injection, schedule: Q01DX011 (ip), vehicle: saline): 100 % of control
- T/C (dose: 15.0 mg/kg/injection, schedule: Q#A X022 (ip), vehicle: saline): 107 % of control
- T/C (dose: 30.0 mg/kg/injection, schedule: Q01DX011 (ip), vehicle: saline): 52 % of control
- T/C (dose: 30.0 mg/kg/injection, schedule: Q#A X022 (ip), vehicle: saline): 67 % of control
- T/C (dose: 45.0 mg/kg/injection, schedule: Q03DX004 (ip), vehicle: saline): 73 % of control
- T/C (dose: 60.0 mg/kg/injection, schedule: Q01DX011 (ip), vehicle: saline): 62 % of control
- T/C (dose: 60.0 mg/kg/injection, schedule: Q#A X022 (ip), vehicle: saline): 28 % of control
- T/C (dose: 90.0 mg/kg/injection, schedule: Q03DX004 (ip), vehicle: saline): 78 % of control
- T/C (dose: 120.0 mg/kg/injection, schedule: Q01DX011 (ip), vehicle: saline): 23 % of control and 28 % of control
- T/C (dose: 180.0 mg/kg/injection, schedule: Q03DX004 (ip), vehicle: saline): 61 % of control
- T/C (dose: 240.0 mg/kg/injection, schedule: Q01DX011 (ip), vehicle: saline): 15 % of control
- T/C (dose: 360.0 mg/kg/injection, schedule: Q03DX004 (ip), vehicle: saline): 36 % of control
- T/C (dose: 480.0 mg/kg/injection, schedule: Q01DX011 (ip), vehicle: saline): 16 % of control

Compound: NC(CO)C(=O)NC1(C(=O)O)CCCC1 (configuration not stated) (H-[ξS]-[Ac5c]-OH)
- T/C (dose: 45.0 mg/kg/injection, schedule: Q01DX011 (ip), vehicle: carboxymethylcellulose (CMC)): 62 % of control
- T/C (dose: 90.0 mg/kg/injection, schedule: Q01DX011 (ip), vehicle: carboxymethylcellulose (CMC)): 12 % of control
- T/C (dose: 180.0 mg/kg/injection, schedule: Q01DX011 (ip), vehicle: carboxymethylcellulose (CMC)): 5 % of control
